According to article PMC9265830, “Purification and Identification of a Novel Angiotensin Converting Enzyme Inhibitory Peptide from the Enzymatic Hydrolysate of Lepidotrigla microptera” (Foods, 2022):
“Also recorded” adds a separate entry of the source. Where no end group is shown, it is not given here.

Tests used:
[1] = target: T1, ACE (Homo sapiens, UniProt P12821); assay: Inhibitory kinetics study (Lineweaver–Burk plots); format: biochemical; details: for Vmax of the enzyme reaction: HHL 1-5 mM, Vmax without peptide 20 mM/min
Protocol: Different concentrations of ACE-inhibitory peptide (0, 60, and 120 μM) were mixed with various concentrations of HHL solution (1, 2, 3, 4 and 5 mM) and pre-incubated for 5 min at 37 °C. Then the reaction was initiated by adding 80 µL of ACE and terminated by adding 20 µL of 1 mol/L HCl. The Lineweaver–Burk plot of the reciprocal of the HHL concentration (1/[s]) and the HA production rate (1/[v]) were used to analyze the inhibitory kinetics of peptide.

[2] = Thermal stability of ACE inhibitory activity; format: physicochemical
Protocol: (§1) ACE-inhibitory activity was determined following the method of Cushman. The reaction system comprised a sample (10 μL), HHL (2.5 mM, 30 μL), and ACE solution (0.1 U/mL, 20 μL) in sodium borate buffer (pH 8.3, 0.3 M NaCl). The mixture of HHL and the sample was pre-incubated for 15 min at 37 °C before adding the ACE solution. The reaction was carried out for 40 min at 37 °C in a water bath and terminated by adding HCl (1 mol/L, 60 μL). Then 20 μL of the reaction mixture was injected into an HPLC system (Shimadzu, Japan) equipped with a C-18 column (150 × 4.6 mm, 5 μm). In order to detect the concentration of HA (hippuric acid), isocratic elution was performed for 25 min in 80% mobile phase A (0.05% Trifluoroacetic acid in H2O) and 20% mobile phase B (Acetonitrile) at a 0.8 mL/min flow rate, and the detection wavelength was 280 nm. The ACE-inhibitory activity was calculated according to the formula:ACE-inhibitory activity (%) = (A1 − A2)/A1(1) where A1 and A2 equal the peak areas of blank control and the sample, respectively.
The sample (0.2 mg/mL) was treated at various temperatures (20, 40, 60, 80, and 100 °C) for 1 h. After cooling the solution to indoor temperature (25 °C), the ACE inhibition activity was detected.

[3] = pH stability of ACE inhibitory activity; format: physicochemical; details: 0.2 mg/mL, 37 °C, 2 h, pH 3 to 11 (method: 2, 4, 6, 8, 10), readjusted to pH 7.0; read-out ACE inhibition
Protocol: as §1
The ACE-inhibitory peptide solution (0.2 mg/mL) was incubated at different pH levels (2, 4, 6, 8, and 10) at 37 °C for 2 h, and the pH value was adjusted by adding HCl (1 mol/L) and NaOH (1 mol/L). Before the ACE inhibition rate was determined, the pH value was adjusted to 7.0.

[4] = tested on: pepsin, pancreatin; assay: Simulated gastrointestinal digestion; format: in vitro ADME; details: 0.2 mg/mL; pepsin 0.05% pH 2.0 2 h 37 °C, then pancreatin 0.05% pH 7.5 2 h 37 °C; read-out ACE inhibition
Protocol: as §1
Simulated gastrointestinal digestion of ACE-inhibitory peptides was conducted following the method of Lai et al. with slight modifications. […]

[5] = target: T1, ACE; assay: ACE-inhibitory activity (HHL substrate, hippuric acid by HPLC); format: biochemical; details: ultrafiltration, Sephadex G-15 and prep-HPLC fractions; chemically synthesized peptides; read-out: IC50 (ACE inhibition) of fractions and synthesized peptides (converted)
Protocol: as §1

T1 sequence (P12821 30-1306, species assumed): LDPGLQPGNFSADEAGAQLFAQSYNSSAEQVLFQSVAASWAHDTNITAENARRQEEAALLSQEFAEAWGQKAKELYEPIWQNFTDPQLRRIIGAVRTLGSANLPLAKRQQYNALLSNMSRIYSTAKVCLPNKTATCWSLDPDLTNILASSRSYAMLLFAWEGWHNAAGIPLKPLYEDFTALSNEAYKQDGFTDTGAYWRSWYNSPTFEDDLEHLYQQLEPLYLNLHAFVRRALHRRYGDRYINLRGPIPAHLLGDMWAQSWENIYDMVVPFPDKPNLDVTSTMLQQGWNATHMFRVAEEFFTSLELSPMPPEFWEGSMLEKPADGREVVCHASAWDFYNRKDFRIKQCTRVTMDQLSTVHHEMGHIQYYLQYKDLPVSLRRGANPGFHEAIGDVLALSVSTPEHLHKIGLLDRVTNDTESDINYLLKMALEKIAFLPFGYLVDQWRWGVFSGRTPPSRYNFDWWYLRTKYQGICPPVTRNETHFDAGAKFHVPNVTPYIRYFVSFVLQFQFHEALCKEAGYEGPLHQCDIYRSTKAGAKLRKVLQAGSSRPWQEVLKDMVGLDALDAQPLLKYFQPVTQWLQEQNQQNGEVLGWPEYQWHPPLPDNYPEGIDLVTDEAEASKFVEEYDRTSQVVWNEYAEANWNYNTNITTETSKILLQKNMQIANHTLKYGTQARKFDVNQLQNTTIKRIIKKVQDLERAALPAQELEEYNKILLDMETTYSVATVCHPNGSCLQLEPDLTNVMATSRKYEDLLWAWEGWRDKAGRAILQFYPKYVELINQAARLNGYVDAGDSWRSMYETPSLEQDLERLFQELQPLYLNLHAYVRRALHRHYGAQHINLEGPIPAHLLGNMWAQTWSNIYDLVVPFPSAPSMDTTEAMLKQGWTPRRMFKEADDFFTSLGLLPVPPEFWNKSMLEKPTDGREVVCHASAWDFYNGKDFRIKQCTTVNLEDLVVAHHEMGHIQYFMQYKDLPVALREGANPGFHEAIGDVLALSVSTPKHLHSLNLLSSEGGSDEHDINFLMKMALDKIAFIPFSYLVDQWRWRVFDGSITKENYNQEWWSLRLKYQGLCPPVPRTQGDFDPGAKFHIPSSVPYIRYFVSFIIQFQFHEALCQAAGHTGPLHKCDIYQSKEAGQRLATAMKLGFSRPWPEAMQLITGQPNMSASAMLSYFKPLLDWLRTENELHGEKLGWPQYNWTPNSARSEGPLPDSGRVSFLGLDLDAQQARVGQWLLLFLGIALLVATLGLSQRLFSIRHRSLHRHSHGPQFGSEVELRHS

| Molecule | Vmax of the enzyme reaction ([1]; 60 μM peptide) [mM/min] | Vmax of the enzyme reaction ([1]; 120 μM peptide) [mM/min] | Inhibitory kinetic mechanism ([1]; Lineweaver–Burk plot) | ACE-inhibitory activity after heat treatment ([2]; 0.2 mg/mL, 1 h, temperature above 60 °C (up to 100 °C), read-out ACE inhibition) | ACE-inhibitory rate after heat treatment ([2]; 0.2 mg/mL, 1 h, temperature range 20 to 60 °C, read-out ACE inhibition) | Stability of ACE-inhibitory activity (abstract summary) ([2]; temperatures (<100 °C) and pH values (3.0–11.0)) | ACE-inhibitory activity after pH treatment [3] | Relative ACE inhibition activity before and after digestion [4] | IC50 [5] [µM] |
| --- | --- | --- | --- | --- | --- | --- | --- | --- | --- |
| CC(C)C[C@H](NC(=O)CNC(=O)[C@H](C)NC(=O)[C@@H](NC(=O)[C@H](CC(C)C)NC(=O)[C@@H](N)CC(=O)O)[C@@H](C)O)C(=O)N[C@@H](CC(C)C)C(=O)N[C@@H](CCC(=O)O)C(=O)O [DLTAGLLE, Phe-Leu-Thr-Ala-Gly-Leu-Leu-Asp] | 5 | 2.78 | noncompetitive | slightly decreased | remained relatively stable | stable | maintained high ACE-inhibitory activity at all pH values | retained after gastrointestinal digestion; also recorded: essentially unchanged | – |
| YLTLFLLT [YLTLFLLT, Tyr-Leu-Thr-Leu-Phe-Leu-Leu-Thr] | – | – | – | – | – | – | – | – | 214 |
